In ChEMBL document CHEMBL1201862, “PubChem BioAssay data set” (2004):
Blank lines part the entries; values can stand above or below the compound they belong to. Active and inactive are the calls of the source.

Tests used:
[1] = anti-trypanosomal activity in BESM host cells – imaging, CA-I/72 strain, bovine embryo skeletal muscle, dry powder, dose response (AID 651885); format: functional, cell-based
[2] = Trypanosoma cruzi replication inhibitors in host cells – cell-based, plate reader, dry powder samples, dose response (AID 651845); format: functional
[3] = T. cruzi growth inhibition in host cells, dose response, cell-based, plate reader, dry powder, set 2 (AID 652275); format: functional
[4] = Late stage assay provider results from the probe development effort to identify selective inhibitors of heat shock protein 90 (HSP90): Absorbance-based cell proliferation assay in SKBR3 cells.; format: functional; settings: SK-BR-3
[5] = Late stage assay provider results from the probe development effort to identify selective inhibitors of heat shock protein 90 (HSP90): Absorbance-based cell proliferation assay in MCF7 cells.; format: functional
[6] = molecular target: T1, Oxysterols receptor LXR-beta (Homo sapiens, UniProt P55055); format: functional, cell-based;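 also: agonist activity at LXR measured by a cell-based luminescence readout across a dose range, run as a counterscreen for daf-12 agonists; HEK293 cells with Gal4-LXR fusion and GAL4-driven luciferase reporter; potency for activation of Gal4-LXR reporter so compounds are agonists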
T1 sequence (P55055 whole entry): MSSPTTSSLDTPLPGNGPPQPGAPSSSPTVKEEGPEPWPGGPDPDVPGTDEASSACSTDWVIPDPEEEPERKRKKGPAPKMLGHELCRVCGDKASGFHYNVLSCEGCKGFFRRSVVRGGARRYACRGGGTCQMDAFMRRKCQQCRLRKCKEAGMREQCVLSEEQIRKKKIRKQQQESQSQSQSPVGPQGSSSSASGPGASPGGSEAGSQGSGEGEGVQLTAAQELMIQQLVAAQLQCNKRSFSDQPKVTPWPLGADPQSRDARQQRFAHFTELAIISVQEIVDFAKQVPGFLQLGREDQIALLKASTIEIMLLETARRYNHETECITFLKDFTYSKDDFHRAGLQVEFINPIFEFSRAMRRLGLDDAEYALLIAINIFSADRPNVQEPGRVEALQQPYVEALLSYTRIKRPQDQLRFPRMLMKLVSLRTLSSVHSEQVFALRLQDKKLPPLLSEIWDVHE

Cytochrome P450 2C9 = Cytochrome P450 2C9 (Homo sapiens, UniProt P11712)
[7] = molecular target: T2, Sentrin-specific protease 7 (Homo sapiens, UniProt Q9BQF6); format: functional;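 also: Luminescence-based dose-response confirmation of ultra-high-throughput screening hits, measuring inhibition of SENP7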
T2 sequence (Q9BQF6 whole entry): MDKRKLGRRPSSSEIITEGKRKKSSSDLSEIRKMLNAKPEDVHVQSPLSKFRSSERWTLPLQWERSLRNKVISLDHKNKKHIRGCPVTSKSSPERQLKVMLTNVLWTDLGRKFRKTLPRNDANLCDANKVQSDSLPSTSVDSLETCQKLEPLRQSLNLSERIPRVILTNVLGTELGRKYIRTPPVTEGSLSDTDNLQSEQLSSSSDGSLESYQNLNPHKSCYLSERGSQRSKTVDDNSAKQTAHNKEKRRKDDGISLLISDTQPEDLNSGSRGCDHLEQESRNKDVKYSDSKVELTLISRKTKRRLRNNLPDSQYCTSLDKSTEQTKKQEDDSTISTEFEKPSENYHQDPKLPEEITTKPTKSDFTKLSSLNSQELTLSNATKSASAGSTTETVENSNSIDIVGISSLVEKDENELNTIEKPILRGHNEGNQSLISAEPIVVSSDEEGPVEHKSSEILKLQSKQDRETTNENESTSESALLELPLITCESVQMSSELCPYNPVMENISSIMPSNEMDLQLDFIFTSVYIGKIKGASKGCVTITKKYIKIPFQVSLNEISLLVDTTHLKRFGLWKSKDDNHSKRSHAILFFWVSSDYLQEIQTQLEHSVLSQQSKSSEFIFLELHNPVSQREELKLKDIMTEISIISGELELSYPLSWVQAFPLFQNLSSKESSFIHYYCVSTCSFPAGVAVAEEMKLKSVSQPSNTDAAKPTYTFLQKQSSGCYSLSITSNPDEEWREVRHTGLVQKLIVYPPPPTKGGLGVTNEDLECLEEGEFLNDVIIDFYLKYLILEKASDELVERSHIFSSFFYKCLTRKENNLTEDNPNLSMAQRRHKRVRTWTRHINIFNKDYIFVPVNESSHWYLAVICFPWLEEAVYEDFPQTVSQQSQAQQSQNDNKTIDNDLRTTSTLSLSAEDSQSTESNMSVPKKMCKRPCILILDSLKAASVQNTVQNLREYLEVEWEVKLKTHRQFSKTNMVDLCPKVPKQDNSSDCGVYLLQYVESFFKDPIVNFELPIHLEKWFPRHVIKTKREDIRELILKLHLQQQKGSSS

Caspase-3 = molecular target: T3, Caspase-3 (Homo sapiens, UniProt P42574); format: functional;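 also: Dose-response selectivity test against caspase-3 for candidate inhibitors of sentrin-specific proteases (SENPs)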
T3 sequence (P42574 whole entry): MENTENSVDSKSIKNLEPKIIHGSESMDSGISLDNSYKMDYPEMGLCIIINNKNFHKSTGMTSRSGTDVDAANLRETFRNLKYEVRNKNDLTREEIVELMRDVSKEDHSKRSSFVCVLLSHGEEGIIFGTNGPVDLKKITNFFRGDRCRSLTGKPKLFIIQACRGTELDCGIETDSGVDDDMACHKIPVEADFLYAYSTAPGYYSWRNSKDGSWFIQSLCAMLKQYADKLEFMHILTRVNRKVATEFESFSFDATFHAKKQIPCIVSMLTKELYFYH

[8] = molecular target: T4, Sentrin-specific protease 6 (Homo sapiens, UniProt Q9GZR1); format: functional;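 also: Luminescence-based dose-response confirmatory assay of SENP6 inhibition, following up an ultra-high-throughput screen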
T4 sequence (Q9GZR1 whole entry): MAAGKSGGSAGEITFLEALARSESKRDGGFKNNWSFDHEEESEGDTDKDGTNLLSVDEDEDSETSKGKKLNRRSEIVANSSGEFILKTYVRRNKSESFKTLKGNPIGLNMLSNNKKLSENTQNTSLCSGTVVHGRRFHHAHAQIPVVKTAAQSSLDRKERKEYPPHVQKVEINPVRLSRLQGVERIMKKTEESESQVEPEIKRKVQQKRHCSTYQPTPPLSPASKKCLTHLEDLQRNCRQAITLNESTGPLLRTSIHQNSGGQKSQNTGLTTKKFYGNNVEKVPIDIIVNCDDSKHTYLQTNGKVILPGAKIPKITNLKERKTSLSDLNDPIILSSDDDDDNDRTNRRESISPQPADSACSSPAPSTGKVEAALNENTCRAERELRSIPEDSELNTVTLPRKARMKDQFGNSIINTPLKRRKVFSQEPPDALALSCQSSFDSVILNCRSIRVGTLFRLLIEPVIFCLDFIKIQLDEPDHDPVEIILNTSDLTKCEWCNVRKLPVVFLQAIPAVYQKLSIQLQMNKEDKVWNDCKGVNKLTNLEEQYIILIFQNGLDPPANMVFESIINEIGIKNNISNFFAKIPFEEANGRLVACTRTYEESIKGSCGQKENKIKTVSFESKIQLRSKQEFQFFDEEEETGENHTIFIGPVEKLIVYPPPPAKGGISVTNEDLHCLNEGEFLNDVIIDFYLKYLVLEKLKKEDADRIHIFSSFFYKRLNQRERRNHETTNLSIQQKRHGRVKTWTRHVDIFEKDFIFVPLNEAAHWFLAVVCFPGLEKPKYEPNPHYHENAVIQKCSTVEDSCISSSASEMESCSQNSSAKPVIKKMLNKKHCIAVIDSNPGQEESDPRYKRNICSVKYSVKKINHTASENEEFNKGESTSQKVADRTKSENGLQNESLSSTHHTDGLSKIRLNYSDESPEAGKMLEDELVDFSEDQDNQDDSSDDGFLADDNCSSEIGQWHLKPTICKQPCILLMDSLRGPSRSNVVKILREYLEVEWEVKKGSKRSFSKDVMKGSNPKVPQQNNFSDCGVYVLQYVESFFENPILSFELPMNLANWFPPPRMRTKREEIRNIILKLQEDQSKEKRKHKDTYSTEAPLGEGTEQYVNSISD

[9] = molecular target: T5, Sentrin-specific protease 8 (Homo sapiens, UniProt Q96LD8); format: functional;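 also: luminescence read-out of SENP8 inhibition, dose-response confirmation following an ultra-high-throughput screen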
T5 sequence (Q96LD8 whole entry): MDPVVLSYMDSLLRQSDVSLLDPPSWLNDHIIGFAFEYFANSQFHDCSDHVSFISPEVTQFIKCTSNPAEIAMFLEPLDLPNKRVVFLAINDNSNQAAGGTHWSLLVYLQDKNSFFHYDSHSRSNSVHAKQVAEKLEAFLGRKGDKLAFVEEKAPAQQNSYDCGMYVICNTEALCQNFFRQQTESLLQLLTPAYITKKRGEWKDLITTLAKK

Cytochrome P450 2D6 = Cytochrome P450 2D6 (Homo sapiens, UniProt P10635);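 also: CYP2D6 member of a cytochrome P450 panel assay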
[10] = COV362 cell viability loss – plate reader, dry powder, SA12, cytotoxicity control for PAX8 inhibitor project, dose response (AID 743144); format: functional, cell-based
Paired box protein Pax-8 = Paired box protein Pax-8 (Homo sapiens, UniProt Q06710); assay: PAX8 transcriptional activity inhibition in RMG-I – RMG-I cells, luciferase, cherry-pick, dose response (AID 687027); format: functional, cell-based;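 also: luciferase reporter driven by Pax8 target thyroperoxidase promoter measured by SteadyGlo luminescence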
[11] = OVCAR4 cell viability loss – plate reader, dry powder, SA11, cytotoxicity control for PAX8 inhibitor project, dose response (AID 743150); format: functional, cell-based; settings: OVCAR-4
[12] = COV434 cell viability loss – plate reader, dry powder, SA7, cytotoxicity control for PAX8 inhibitor project, dose response (AID 743145); format: functional, cell-based
[13] = growth inhibition of PfATP4-mutant resistant parasites – NITD609-resistant line, SYBR Green, dry powder, dose response (AID 1159571); format: functional, cell-based;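 also: parasites synchronized at ring stage by sorbitol before testing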
[14] = PAX8-dependent cell viability loss – plate reader, dry powder, dose response (AID 743049); format: functional, cell-based
[15] = Dd2 malaria parasite growth inhibition potency – SYBR Green, dry powder samples, dose response (AID 1159566); format: functional, cell-based;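 also: potency for growth inhibition with lower SYBR green DNA signal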
[16] = toxicity to human HepG2 hepatoma cells – cell-based, plate reader, dry powder samples, cytotoxicity control, dose response (AID 1159569); format: functional;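 also: inhibitor potency with signal falling toward the positive control level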
[17] = P. falciparum Dd2 growth inhibitors, dose response, SYBR Green, cherry-picked samples (AID 1159567); format: functional, cell-based
[18] = OV-90 cell viability loss – plate reader, dry powder, SA8, PAX8 inhibitor project, dose response (AID 743149); format: functional, cell-based
[19] = PAX5 cellular inhibition readout – cell-based, plate reader, dry powder samples, selectivity assay for PAX8 inhibitor project, dose response (AID 743047); format: functional;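 also: HEK293 cells carrying a Pax5 driven CD19 promoter luciferase reporter; potency of inhibitors that lower reporter luminescence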
[20] = growth inhibition of yeast DHODH-expressing 3D7 parasites – SYBR Green, dry powder samples, dose response (AID 1159570); format: functional, cell-based;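 also: parasite growth measured after 72 hours of compound exposure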
[21] = toxicity to human hepatoma HepG2 cells – cell-based, cherry-picked samples, cytotoxicity control, dose response (AID 1159577); format: functional
[22] = OVCAR-3 cell viability loss – plate reader, dry powder samples, PAX8 inhibitor project, dose response (AID 743044); format: functional, cell-based
[23] = inhibitors acting on PAX2 in cells – cell-based, plate reader, dry powder samples, selectivity assay for PAX8 inhibitor project, dose response (AID 743048); format: functional;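 also: HEK293 cells carrying a WT1 promoter luciferase reporter driven by expressed Pax2; potency is for inhibition of Pax2 driven reporter signal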
[24] = molecular target: 1-phosphatidylinositol 4,5-bisphosphate phosphodiesterase beta-3 (Homo sapiens, UniProt Q01970); assay: Fluorescence-based biochemical high throughput dose response assay to identify inhibitors of phospholipase C isozymes (PLC-B3).
[25] = molecular target: 1-phosphatidylinositol 4,5-bisphosphate phosphodiesterase gamma-1 (Homo sapiens, UniProt P19174); assay: Counterscreen for inhibitors of phospholipase C isozymes (PLC-B3): Fluorescence-based biochemical high throughput dose response assay to identify inhibitors of phospholipase C isozymes (PLC-gamma1).
Sequence of 1-phosphatidylinositol 4,5-bisphosphate phosphodiesterase gamma-1 (P19174 whole entry): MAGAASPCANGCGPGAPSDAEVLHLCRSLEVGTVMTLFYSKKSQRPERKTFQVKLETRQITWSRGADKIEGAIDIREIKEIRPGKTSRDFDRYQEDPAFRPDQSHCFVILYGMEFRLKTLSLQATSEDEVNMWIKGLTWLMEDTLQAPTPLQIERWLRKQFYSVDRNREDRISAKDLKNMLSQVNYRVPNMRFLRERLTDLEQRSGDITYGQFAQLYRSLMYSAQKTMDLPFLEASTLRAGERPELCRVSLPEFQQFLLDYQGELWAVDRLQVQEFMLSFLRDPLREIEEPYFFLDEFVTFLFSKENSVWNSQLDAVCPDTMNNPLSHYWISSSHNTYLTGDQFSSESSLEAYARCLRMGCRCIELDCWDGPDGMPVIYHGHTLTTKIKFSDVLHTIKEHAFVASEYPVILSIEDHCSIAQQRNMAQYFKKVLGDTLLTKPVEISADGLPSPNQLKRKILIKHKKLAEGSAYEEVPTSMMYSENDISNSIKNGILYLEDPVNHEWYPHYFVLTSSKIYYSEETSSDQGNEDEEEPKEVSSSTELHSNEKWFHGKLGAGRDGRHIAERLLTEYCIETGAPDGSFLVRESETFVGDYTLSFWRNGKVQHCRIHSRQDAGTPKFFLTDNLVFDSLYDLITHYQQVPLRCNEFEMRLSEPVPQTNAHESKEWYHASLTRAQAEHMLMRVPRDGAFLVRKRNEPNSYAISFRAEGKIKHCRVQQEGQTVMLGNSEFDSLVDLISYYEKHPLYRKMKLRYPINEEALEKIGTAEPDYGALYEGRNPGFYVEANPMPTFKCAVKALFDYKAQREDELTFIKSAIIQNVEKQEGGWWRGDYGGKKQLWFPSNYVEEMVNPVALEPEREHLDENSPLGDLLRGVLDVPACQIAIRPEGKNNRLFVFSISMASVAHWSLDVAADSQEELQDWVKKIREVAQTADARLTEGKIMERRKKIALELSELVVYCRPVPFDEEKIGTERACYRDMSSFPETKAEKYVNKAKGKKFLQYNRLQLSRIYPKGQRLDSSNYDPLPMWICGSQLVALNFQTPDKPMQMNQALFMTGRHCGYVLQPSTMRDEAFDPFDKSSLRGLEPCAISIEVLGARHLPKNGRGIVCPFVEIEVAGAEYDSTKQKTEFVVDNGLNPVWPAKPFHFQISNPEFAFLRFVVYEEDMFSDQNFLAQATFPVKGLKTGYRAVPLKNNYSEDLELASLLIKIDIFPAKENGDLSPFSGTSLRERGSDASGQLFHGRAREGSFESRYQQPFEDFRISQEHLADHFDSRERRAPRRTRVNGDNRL

Sequence of Paired box protein Pax-8 (Q06710 whole entry): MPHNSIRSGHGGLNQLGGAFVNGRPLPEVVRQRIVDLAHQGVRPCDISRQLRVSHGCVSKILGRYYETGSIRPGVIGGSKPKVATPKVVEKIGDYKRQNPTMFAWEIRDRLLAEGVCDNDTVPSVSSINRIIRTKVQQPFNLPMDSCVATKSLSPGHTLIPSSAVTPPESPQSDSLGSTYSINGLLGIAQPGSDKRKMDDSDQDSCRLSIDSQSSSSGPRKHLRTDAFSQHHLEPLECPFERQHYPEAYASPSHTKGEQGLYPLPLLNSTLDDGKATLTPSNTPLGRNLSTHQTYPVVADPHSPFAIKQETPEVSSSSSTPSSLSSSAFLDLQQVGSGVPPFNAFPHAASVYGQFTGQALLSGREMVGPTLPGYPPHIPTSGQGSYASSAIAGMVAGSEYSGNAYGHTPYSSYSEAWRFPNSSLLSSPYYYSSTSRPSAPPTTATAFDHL
Sequence of 1-phosphatidylinositol 4,5-bisphosphate phosphodiesterase beta-3 (Q01970 whole entry): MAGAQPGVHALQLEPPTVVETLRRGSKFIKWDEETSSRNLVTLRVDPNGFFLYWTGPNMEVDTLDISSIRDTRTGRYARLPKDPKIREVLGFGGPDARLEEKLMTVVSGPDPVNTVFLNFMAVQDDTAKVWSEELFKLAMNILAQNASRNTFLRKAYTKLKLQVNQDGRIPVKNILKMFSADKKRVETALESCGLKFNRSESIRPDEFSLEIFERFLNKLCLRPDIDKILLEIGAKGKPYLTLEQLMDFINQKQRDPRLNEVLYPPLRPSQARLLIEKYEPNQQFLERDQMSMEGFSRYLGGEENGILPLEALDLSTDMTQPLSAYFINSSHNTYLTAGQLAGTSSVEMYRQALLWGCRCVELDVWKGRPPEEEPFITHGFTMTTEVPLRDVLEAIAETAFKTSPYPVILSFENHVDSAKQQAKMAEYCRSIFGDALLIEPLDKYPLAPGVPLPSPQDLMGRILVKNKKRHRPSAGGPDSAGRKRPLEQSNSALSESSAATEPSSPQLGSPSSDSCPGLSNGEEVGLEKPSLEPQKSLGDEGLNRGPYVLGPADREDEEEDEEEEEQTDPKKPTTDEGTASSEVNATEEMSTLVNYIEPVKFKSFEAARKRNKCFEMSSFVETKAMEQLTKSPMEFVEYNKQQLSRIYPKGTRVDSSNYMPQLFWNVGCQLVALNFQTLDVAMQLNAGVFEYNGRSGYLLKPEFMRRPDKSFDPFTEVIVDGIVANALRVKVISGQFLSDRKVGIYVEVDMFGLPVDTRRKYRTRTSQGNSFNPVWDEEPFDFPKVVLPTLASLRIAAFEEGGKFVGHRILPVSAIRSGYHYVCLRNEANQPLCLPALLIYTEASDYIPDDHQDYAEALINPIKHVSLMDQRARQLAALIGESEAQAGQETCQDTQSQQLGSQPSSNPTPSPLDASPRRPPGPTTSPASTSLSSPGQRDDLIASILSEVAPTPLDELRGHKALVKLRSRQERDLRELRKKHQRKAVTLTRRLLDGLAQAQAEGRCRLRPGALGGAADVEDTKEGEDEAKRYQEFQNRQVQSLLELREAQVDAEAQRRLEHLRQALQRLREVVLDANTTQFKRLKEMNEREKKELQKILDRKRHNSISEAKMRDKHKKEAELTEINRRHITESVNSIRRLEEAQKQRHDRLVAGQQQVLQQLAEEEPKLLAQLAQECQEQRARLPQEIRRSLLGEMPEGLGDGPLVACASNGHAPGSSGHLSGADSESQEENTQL
Sequence of Cytochrome P450 2C9 (P11712 whole entry): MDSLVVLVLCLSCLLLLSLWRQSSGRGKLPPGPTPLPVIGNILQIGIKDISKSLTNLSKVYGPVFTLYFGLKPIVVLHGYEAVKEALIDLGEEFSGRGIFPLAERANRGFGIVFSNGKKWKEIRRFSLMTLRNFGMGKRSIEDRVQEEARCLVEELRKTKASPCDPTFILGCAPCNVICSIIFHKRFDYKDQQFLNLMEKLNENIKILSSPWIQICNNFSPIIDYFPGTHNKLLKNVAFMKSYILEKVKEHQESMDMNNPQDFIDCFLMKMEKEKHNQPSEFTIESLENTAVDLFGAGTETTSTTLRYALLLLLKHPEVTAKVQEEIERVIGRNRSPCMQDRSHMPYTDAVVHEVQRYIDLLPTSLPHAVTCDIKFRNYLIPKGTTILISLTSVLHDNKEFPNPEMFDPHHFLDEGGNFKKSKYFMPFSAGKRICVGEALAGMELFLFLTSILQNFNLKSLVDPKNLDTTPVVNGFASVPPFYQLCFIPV
Sequence of Cytochrome P450 2D6 (P10635 whole entry): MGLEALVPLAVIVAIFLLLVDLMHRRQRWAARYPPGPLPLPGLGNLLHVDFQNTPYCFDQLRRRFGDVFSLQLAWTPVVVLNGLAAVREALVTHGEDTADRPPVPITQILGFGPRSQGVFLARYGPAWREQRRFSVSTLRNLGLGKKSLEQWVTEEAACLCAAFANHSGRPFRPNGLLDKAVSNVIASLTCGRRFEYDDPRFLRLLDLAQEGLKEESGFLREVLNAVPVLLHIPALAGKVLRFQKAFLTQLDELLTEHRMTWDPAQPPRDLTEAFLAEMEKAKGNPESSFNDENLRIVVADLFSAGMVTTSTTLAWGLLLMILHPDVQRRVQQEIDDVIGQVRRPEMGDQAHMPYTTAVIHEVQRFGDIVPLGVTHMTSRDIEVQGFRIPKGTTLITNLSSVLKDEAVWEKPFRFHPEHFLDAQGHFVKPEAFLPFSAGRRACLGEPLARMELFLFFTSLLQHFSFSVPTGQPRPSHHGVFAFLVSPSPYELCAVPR

Structure (SMILES): CCCn1ncc(CN(C)C[C@H]2Oc3c(NC(=O)c4ccncc4)cccc3C(=O)N(C(C)C)C[C@@H]2C)c1C
IC50 [1]: 2.92 µM (inconclusive) | AC50 [2]: 0.521 µM (active) | AC50 [3]: 0.521 µM (active)

Structure (SMILES): O=C1OC(=O)/C(=C\NCCc2ccccc2)C=C1Br
IC50 [4]: 3.7 µM (active) | IC50 [5]: 2.1 µM (active)

EC50 [6]: > 67.5 µM (inactive) | AC50 (Cytochrome P450 2C9): inconclusive | IC50 [7]: 6.52 µM (active) | IC50 (Caspase-3): 28.7 µM (active) | IC50 [8]: 19.1 µM (active) | AC50 (Cytochrome P450 2D6): 14.1 µM (inconclusive)
Structure (SMILES): O=[N+]([O-])c1cccnc1NCCNc1ncc(C(F)(F)F)cc1Cl
IC50 [9]: 23.3 µM (active)

Structure (SMILES): COc1cccc(C#Cc2ccc([C@H]3[C@@H](CO)N(C(=O)C4CCCCC4)[C@H]3C#N)cc2)c1
AC50 [10]: 23.2 µM (active) | AC50 (Paired box protein Pax-8): 3.39 µM (active) | AC50 [11]: 7.73 µM (active) | AC50 [12]: 17.4 µM (active) | AC50 [13]: 2.15 µM (active) | AC50 [14]: 8.27 µM (active) | AC50 [15]: 1.21 µM (active) | AC50 [16]: 46.6 µM (active) | AC50 [17]: 0.833 µM (active) | AC50 [18]: 24.7 µM (active) | AC50 [19]: 11.9 µM (active) | AC50 [20]: 1.86 µM (active) | AC50 [21]: 36.2 µM (active) | AC50 [22]: 46.6 µM (active) | AC50 [23]: 16.8 µM (active)

IC50 [24]: > 122 µM (inactive) | IC50 [25]: > 122 µM (inactive)
Structure (SMILES): COc1ccnc2c1c(=O)n(Cc1ccc(Cl)cc1Cl)c(=O)n2C
